# In ChEMBL document CHEMBL1148096, “Ophirapstanol trisulfate, a new biologically active steroid sulfate from the deep water marine sponge Topsentia ophiraphidites” (J Nat Prod, 1994):
# Molecular target: GTPase HRas (Homo sapiens, UniProt P01112)
# Assay: Inhibition of human recombinant p21RAS by GDPX assay
# GTPase HRas, sequence (P01112 whole entry): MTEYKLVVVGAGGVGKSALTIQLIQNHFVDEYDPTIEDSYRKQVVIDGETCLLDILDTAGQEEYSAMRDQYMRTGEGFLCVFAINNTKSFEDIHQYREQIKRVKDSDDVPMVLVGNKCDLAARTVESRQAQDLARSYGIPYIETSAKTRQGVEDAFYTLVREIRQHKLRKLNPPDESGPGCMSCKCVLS
smiles,measurement,value
CC(C)C(C)(C)C(C)CC[C@@H](C)[C@H]1CC[C@H]2[C@@H]3C[C@H](OS(=O)(=O)O)C4C[C@H](OS(=O)(=O)O)[C@@H](OS(=O)(=O)O)C[C@]4(C)[C@H]3CC[C@]12C (stereo partly specified) [OPHIRAPSTANOL TRISULFATE],IC50,2550 nM
